Measurements: article PMC12655637, “Design, Synthesis, and Mechanistic Study of Novel Ciprofloxacin/Thiazole Chalcone Hybrids as Potential Anticancer Agents” (Pharmaceuticals, 2025)
Where two headings read alike, the source gives them in different places.

How the values were obtained:
Assay in all cases: NCI-60 screening, one-dose (10 µM) and five-dose, SRB
MCF7 = assay type: cell-based, human; details: Homo sapiens, MCF7, 10 μM; MCF7, Breast Cancer; read-out: Growth percentage
A498 = assay type: cell-based; details: Homo sapiens
COLO 205 = assay type: cell-based, human; details: Homo sapiens; 10 μM; COLO 205, Colon Cancer; read-out: Growth percentage
SK-MEL-5 = assay type: cell-based, human; details: Homo sapiens; 10 μM; SK-MEL-5, Melanoma; read-out: Growth percentage
K-562 = assay type: cell-based, human; details: Homo sapiens, K562, 10 μM; K-562, Leukemia; read-out: Growth percentage
SR = assay type: cell-based, human; details: 10 μM, Leukemia
SK-MEL-28 = assay type: cell-based, human; details: Homo sapiens; 10 μM; SK-MEL-28, Melanoma; read-out: Growth percentage
LOX IMVI = assay type: cell-based, human; details: Homo sapiens, 10 μM, Melanoma, read-out: Growth percentage
NCI-H23 = assay type: cell-based, human; details: Homo sapiens; 10 μM; NCI-H23, Non-Small-Cell Lung Cancer; read-out: Growth percentage
M14 = assay type: cell-based, human; details: Homo sapiens; 10 μM; M14, Melanoma; read-out: Growth percentage
SF-268 = assay type: cell-based, human; details: Homo sapiens; 10 μM; SF-268, CNS Cancer; read-out: Growth percentage
SNB-75 = assay type: cell-based, human; details: Homo sapiens; 10 μM; SNB-75, CNS Cancer; read-out: Growth percentage
RXF 393 = assay type: cell-based; details: Homo sapiens
HCC-2998 = assay type: cell-based, human; details: Homo sapiens; 10 μM; HCC-2998, Colon Cancer; read-out: Growth percentage
786−0 = assay type: cell-based, human; details: Homo sapiens; 10 μM; 786−0, Renal Cancer; read-out: Growth percentage
RPMI-8226 = assay type: cell-based, human; details: Homo sapiens, RPMI-8226, 10 μM; RPMI-8226, Leukemia; read-out: Growth percentage
DU-145 = assay type: cell-based, human; details: Homo sapiens; 10 μM; DU-145, Prostate Cancer; read-out: Growth percentage
HOP-92 = assay type: cell-based, human; details: Homo sapiens; 10 μM; HOP-92, Non-Small-Cell Lung Cancer; read-out: Growth percentage
UACC-62 = assay type: cell-based; details: Homo sapiens
PC-3 = assay type: cell-based, human; details: Homo sapiens; 10 μM; PC-3, Prostate Cancer; read-out: Growth percentage
OVCAR-4 = assay type: cell-based, human; details: Homo sapiens; 10 μM; OVCAR-4, Ovarian Cancer; read-out: Growth percentage
U251 = assay type: cell-based, human; details: Homo sapiens, U-251; 10 μM; U251, CNS Cancer; read-out: Growth percentage
EKVX = assay type: cell-based, human; details: Homo sapiens, 10 μM, Non-Small-Cell Lung Cancer, read-out: Growth percentage
HCT-116 = assay type: cell-based, human; details: Homo sapiens; for activity at 10 µM: HCT-116, 10 μM, HCT-116, Colon Cancer, read-out: Growth percentage
SF-295 = assay type: cell-based, human; details: Homo sapiens; 10 μM; SF-295, CNS Cancer; read-out: Growth percentage
CAKI-1 = assay type: cell-based; details: Homo sapiens
NCI-H460 = assay type: cell-based, human; details: Homo sapiens, NCI-H460, 10 μM; NCI-H460, Non-Small-Cell Lung Cancer; read-out: Growth percentage
[1] = A498, 10 μM, A498, Renal Cancer, read-out: Growth percentage
[2] = 10 μM, RXF 393, Renal Cancer, read-out: Growth percentage
[3] = 10 μM, UACC-62, Melanoma, read-out: Growth percentage
[4] = 10 μM, CAKI-1, Renal Cancer, read-out: Growth percentage

| Compound | activity at 10 µM (MCF7) | activity at 10 µM (COLO 205) | activity at 10 µM (SK-MEL-5) | activity at 10 µM (K-562) | Growth percentage (SR) | activity at 10 µM (SK-MEL-28) | activity at 10 µM (LOX IMVI) | activity at 10 µM (NCI-H23) | activity at 10 µM (M14) | activity at 10 µM (SF-268) | activity at 10 µM (SNB-75) | activity at 10 µM (HCC-2998) | activity at 10 µM (786−0) | activity at 10 µM (RPMI-8226) | activity at 10 µM (DU-145) | activity at 10 µM (HOP-92) | activity at 10 µM (PC-3) | activity at 10 µM (OVCAR-4) | activity at 10 µM (U251) | activity at 10 µM (EKVX) | also measured |
| --- | --- | --- | --- | --- | --- | --- | --- | --- | --- | --- | --- | --- | --- | --- | --- | --- | --- | --- | --- | --- | --- |
| Cc1nc(SCC(=O)N2CCN(c3cc4c(cc3F)c(=O)c(C(=O)O)cn4C3CC3)CC2)sc1C(=O)/C=C/c1ccc(Cl)cc1 [Compound 4c, (E)-7-(4-(2-((5-(3-(4-Chlorophenyl)acryloyl)-4-methylthiazol-2-yl)thio)acetyl)piperazin-1-yl)-1-cyclopropyl-6-fluoro-4-oxo-1,4-dihydroquinoline-3-carboxylic Acid] | 52.9% | 107% | 100% | 93.1% | 35.32% | 100% | 80.9% | 96.5% | 98.7% | 180% | 95.6% | 104% | 96.2% | 7.7% | 178% | 119% | 100% | 107% | 111% | 103% | activity at 10 µM (A498; [1]): 119%; activity at 10 µM (RXF 393; [2]): 109%; activity at 10 µM (UACC-62; [3]): 94.9%; activity at 10 µM (HCT-116): 61%; IC50 (HCT-116; colon HCT-116): 340 nM; activity at 10 µM (SF-295): 102%; activity at 10 µM (CAKI-1; CAKI-1, read-out: Growth percentage): 100%; activity at 10 µM (NCI-H460): 106% |
| Cc1nc(SCC(=O)N2CCN(c3cc4c(cc3F)c(=O)c(C(=O)O)cn4C3CC3)CC2)sc1C(=O)/C=C/c1ccc(F)cc1 [Compound 4e, (E)-1-Cyclopropyl-6-fluoro-7-(4-(2-((5-(3-(4-fluorophenyl)acryloyl)-4-methylthiazol-2-yl)thio)acetyl)piperazin-1-yl)-4-oxo-1,4-dihydroquinoline-3-carboxylic Acid] | 70.6% | 119% | 99.9% | 98.2% | 55.6% | 116% | 91.2% | 101% | 97.8% | 111% | 103% | 107% | 88.3% | 29.1% | 105% | 98% | 96.6% | 102% | 114% | 108% | activity at 10 µM (A498; A498, read-out: Growth percentage): 106%; activity at 10 µM (RXF 393; [2]): 95.9%; activity at 10 µM (UACC-62; [3]): 99.6%; activity at 10 µM (HCT-116): 51.2%; activity at 10 µM (SF-295): 98.8%; activity at 10 µM (CAKI-1; [4]): 97.4%; activity at 10 µM (NCI-H460): 108% |
| Cc1nc(SCC(=O)N2CCN(c3cc4c(cc3F)c(=O)c(C(=O)O)cn4C3CC3)CC2)sc1C(=O)/C=C/c1ccc(Br)cc1 [Compound 4f, (E)-7-(4-(2-((5-(3-(4-Bromophenyl)acryloyl)-4-methylthiazol-2-yl)thio)acetyl)piperazin-1-yl)-1-cyclopropyl-6-fluoro-4-oxo-1,4-dihydroquinoline-3-carboxylic Acid] | 70.8% | 112% | 101% | 96.2% | 56.5% | 114% | 90.5% | 102% | 108% | 116% | 65.7% | 115% | 93.6% | 31.5% | 113% | 115% | 102% | 102% | 98.4% | 107% | activity at 10 µM (A498; [1]): 114%; activity at 10 µM (RXF 393; RXF 393, read-out: Growth percentage): 107%; activity at 10 µM (UACC-62; [3]): 105%; activity at 10 µM (HCT-116): 94.3%; activity at 10 µM (SF-295): 108%; activity at 10 µM (CAKI-1; [4]): 101%; activity at 10 µM (NCI-H460): 107% |
| Cc1nc(SCC(=O)N2CCN(c3cc4c(cc3F)c(=O)c(C(=O)O)cn4C3CC3)CC2)sc1C(=O)/C=C/c1cccc([N+](=O)[O-])c1 [Compound 4g, (E)-1-Cyclopropyl-6-fluoro-7-(4-(2-((4-methyl-5-(3-(3-nitrophenyl)acryloyl)thiazol-2-yl)thio)acetyl)piperazin-1-yl)-4-oxo-1,4-dihydroquinoline-3-carboxylic Acid] | 11.6% | 90.5% | 81.7% | 29.3% | 11.6% | 80.8% | 34.2% | 87.8% | 83.3% | 172% | 95.7% | 50.3% | 71.2% | 9.9% | 108% | 68.4% | 112% | 103% | 50.7% | 111% | activity at 10 µM (A498; [1]): 129%; activity at 10 µM (RXF 393; [2]): 92.9%; activity at 10 µM (UACC-62; UACC-62, read-out: Growth percentage): 71.9%; activity at 10 µM (HCT-116): -73.5%; activity at 10 µM (SF-295): 110%; activity at 10 µM (CAKI-1; [4]): 92.6%; activity at 10 µM (NCI-H460): 106% |
